Measurements from US20030207843A1, “Treatment of drug-resistant human immunodeficiency virus infection” (priority 1999, published 2003).
Like-named read-outs stand apart in the source and are kept apart here.

Legend:
HIV-1LAI Q161L/H208Y = assay: p24 reduction assay in MT-2 cells, Q161L/H208Y; format: cell-based; details: Table 7; for EC50: Q161L/H208Y; for Fold-resistance: Q161L/H208Y relative to wild type virus
Method: (§1) Cells. MT-2 cells (AIDS Research and Reference Reagent Program, National Institute of Allergy and Infectious Diseases, National Institutes of Health) were maintained in RPMI 1640 supplemented with 10% fetal bovine serum (FBS; JRH Biosciences, Lenexa, Kans.), 10 mM HEPES buffer, 50 IU/ml penicillin and 50 μg/ml streptomycin.
(§2) Antiviral Susceptibility Assays. The antiviral activity of each compound was determined by inoculating MT-2 cells with HIV-1LAI at a multiplicity of infection (MOI) of 0.01 TCID50/cell, followed by incubation in the presence of three-fold serial drug dilutions (3 wells per dilution) (see Mellors, et. al., Antimicrob. Agents Chemother. 39:1087-1092). Five or seven days after infection, culture supernatants were harvested, lysed with 0.5% triton-X 100 and assayed for p24 antigen concentration using a commercial ELISA assay (DuPont, NEN Products, Wilmington, Del.). The antiviral activity of the compounds is expressed as the IC50, which is the concentration required to inhibit 50% of p24 antigen production. The fold-resistance of a test virus is calculated by dividing the IC50 of the test virus by the IC50 of the HIV-1LAI control virus.
(§3) Generation of Mutant Recombinant HIV-1. HIV-1 containing the desired mutations were generated by oligonucleotide directed mutagenesis (Altered Sites II, Promega) as previously described (Mellors, et. al., Molecular Pharm. 41:446-451). After mutagenesis, mutant RT was subcloned into the pxxHIV-1LAI cloning vector using the silent XmaI and XbaI restriction sites located at the 5′ and 3′ ends of RT. Clones were DNA sequenced to verify the presence of the desired mutation(s) and electroporated into MT-2 cells as described above to generate infectious mutant recombinant HIV-1.
(§4) Mutant RT was generated via oligonucleotide-directed mutagenesis and ligated into the pXXHIV-1LAI cloning vector. Cloning was facilitated by the presence of two silent restriction sites at the 5′ and 3′ ends (Xma1 and Xba1, respectively) of pXXHIV-1LAI RT. Infectious mutant recombinant HIV-1 was generated by electroporating MT-2 cells with mutated pXXHIV-1LAI clones. The presence of the desired mutations was verified by DNA sequencing.
(§5) Invention compounds were also evaluated against a panel of HIV-1LAI derived recombinants resistant to PFA and the PFA invention compounds, as shown in Table 7.

HIV-1LAI M41L/T215Y = assay: p24 reduction assay in MT-2 cells, M41L/T215Y; format: cell-based; details: for EC50: M41L/T215Y; for Fold-resistance: M41L/T215Y relative to wild type virus
Method: as §1, §2, §3, §4
(§6) The multi-drug resistant HIV-1 strains, 11163p1 and 11588p1, are human clinical isolates having the RT mutations indicated. HIV-1 strains treated with the lipid analogs of the present invention include wild type, e.g., xxLAI, and the like, single mutation, e.g., xxLAI MI 84V (resistant to 3TC), xxLAI L74V (resistant to ddI and ddC), xxLAI K65R (resistant to ddI, ddC, DAPD, DXG, tenofovir, and adefovir), xxLAI T215Y (resistant to AZT), and the like, double mutations, e.g., xxLAI M41 L/T215Y (resistant to AZT), xxLAI MI 84V/T215Y (resistant to 3TC and AZT), and the like, and multiple mutations, e.g., xxLAI 4XAZT ((D67N, K70R, T215Y, K219Q) resistant to AZT)), xxLAI 4XAZT/M184V ((D67N, K70R, M 184V, T215Y, K219Q) resistant to AZT and 3TC), xxLAI M5456-12 (AZT+NNRTI resistant: D67N, K70R, K103N, T215Y), xxLAI G2-3g (AZT/3TC co-resistant: M41L, D67N, M184V, H208Y, L210W, R211K, L214F, T215Y, 1293V, E297A), 11163 (multinucleoside resistant virsus: M41L, A62V, V751, F77L, K103N, F116Y, Q151M, Y181C, M184V), 11588 (multinucleoside resistant virsus: A62V, K65R, K70R, V751, F77L, F116Y, Q151M, M184V, K219Q), and the like.

HIV-1LAI 4XAZT/M184V = assay: p24 reduction assay in MT-2 cells, 4XAZT/M184V; format: cell-based; details: for Fold-resistance: 4XAZT/M184V relative to wild type virus
Method: as §1, §2, §3, §4, §6

HIV-1LAI E89K = assay: p24 reduction assay in MT-2 cells, E89K; format: cell-based; details: Table 7; for EC50: E89K; for Fold-resistance: E89K relative to wild type virus
Method: as §1, §2, §3, §4, §5

HIV-1LAI 4XAZT/W88G = assay: p24 reduction assay in MT-2 cells, 4XAZT/W88G; format: cell-based
Method: as §1, §2, §3, §4, §5
Recombinant viruses containing the mutations selected by invention compounds were also evaluated for their susceptibility to AZT, as shown in Table 8.

[1] = test system: 9GC (multinucleoside resistant recombinant virus D67E, S68T, T69S[SA insert], T215Y); assay: p24 reduction assay in MT-2 cells, virus 9GC; format: cell-based, HIV-1; details: Table 4; for EC50: virus 9GC, mean ± SD; for Fold-resistance: virus 9GC relative to wild type virus
Method: as §1, §2
(§7) The MNR panel consisted of a virus containing the mutations V75I, F77L, F116Y and […], a virus containing the T69S[SA insert], and a clinical isolate carrying the classic MNR genotype (62V/751/77L/116Y/151M). Each of the PFA invention compounds retained potency against these viruses with fold resistance values of <2.

HIV-1LAI 4XAZT/K103N = assay: p24 reduction assay in MT-2 cells, 4XAZT/K103N; format: cell-based; details: for Fold-resistance: 4XAZT/K103N relative to wild type virus
Method: as §1, §2, §3, §4, §6

[2] = test system: 11163p3 (multinucleoside resistant clinical isolate); assay: p24 reduction assay in MT-2 cells, 11163p3; format: cell-based, HIV-1; details: Table 4; for EC50: 11163p3, mean ± SD; for Fold-resistance: 11163p3 relative to wild type virus
Method: as §1, §2, §7

[3] = test system: HIV-1 G2-3g (molecularly cloned isolate co-resistant to AZT and 3TC); assay: p24 reduction assay in MT-2 cells, G2-3g; format: cell-based; details: for EC50: G2-3g; for Fold-resistance: G2-3g relative to wild type virus
Method: as §1, §2, §6

[4] = Human immunodeficiency virus 1, MT2
[5] = Human immunodeficiency virus 1, MT2, Table 1, MOI 0.01
[6] = Human immunodeficiency virus 1, MT2, Table 5, mean ± SD
[7] = Table 1, 4xAZT/M184V, MOI 0.01, read-out: EC50
[8] = Table 5, 4XAZT/M184V, mean ± SD, read-out: EC50
[9] = Table 7, 4XAZTW88G, read-out: EC50
[10] = Table 5, 4XAZT/K103N, mean ± SD, read-out: EC50
[11] = Table 1, AZT/K103N, MOI 0.01, read-out: EC50

| SMILES | Fold-resistance (HIV-1LAI M41L/T215Y; Table 5) | Fold-resistance (HIV-1LAI 4XAZT/M184V; Table 5) | Fold-resistance (HIV-1LAI E89K) | Fold-resistance [1] | Fold-resistance (HIV-1LAI 4XAZT/K103N; Table 5) | Fold-resistance [2] | Fold-resistance ([3]; Table 5) | EC50 (HIV-1LAI Q161L/H208Y) | Fold-resistance (HIV-1LAI Q161L/H208Y) | EC50 (HIV-1LAI M41L/T215Y; Table 1, MOI 0.01) | EC50 (HIV-1LAI M41L/T215Y; Table 5, mean ± SD) | EC50 (HIV-1LAI 4XAZT/M184V; [7]) | EC50 (HIV-1LAI 4XAZT/M184V; [8]) | EC50 (HIV-1LAI E89K) | EC50 (HIV-1LAI 4XAZT/W88G; [9]) | EC50 (HIV-1LAI 4XAZT/K103N; [10]) | EC50 [2] | EC50 ([3]; Table 1, MOI 0.01) | EC50 ([3]; Table 5, mean ± SD) | EC50 [1] | further results |
| --- | --- | --- | --- | --- | --- | --- | --- | --- | --- | --- | --- | --- | --- | --- | --- | --- | --- | --- | --- | --- | --- |
| O=C(O)P(=O)(O)O [PFA, phosphonoformate, reference compound] | (0.8) | (1.3) | 46.24 (6.9) | (1.1) | (1.1) | (0.9) | (0.5) |  |  |  |  |  |  |  |  |  |  |  |  |  | EC50 (HIV-1LAI Q161L/H208Y; [4]): 126 µM; EC50 (HIV-1LAI M41L/T215Y; [5]): 16.2 µM; EC50 (HIV-1LAI M41L/T215Y; [6]): 13.9 ± 4.14 µM; EC50 (HIV-1LAI 4XAZT/M184V; Human immunodeficiency virus 1, MT2, Table 1, 4xAZT/M184V, MOI 0.01): 15.7 µM; EC50 (HIV-1LAI 4XAZT/M184V; Human immunodeficiency virus 1, MT2, Table 5, 4XAZT/M184V, mean ± SD, read-out: EC50): 22.7 ± 15.8 µM; EC50 (HIV-1LAI E89K; [4]): 90.2 µM; EC50 (HIV-1LAI 4XAZT/W88G; Human immunodeficiency virus 1, MT2, Table 7, 4XAZTW88G, read-out: EC50): 86.2 µM; EC50 [1, 4]: 13.2 ± 12.8 µM; EC50 (HIV-1LAI 4XAZT/K103N; Human immunodeficiency virus 1, MT2, Table 1, AZT/K103N, MOI 0.01): 18.6 µM; EC50 (HIV-1LAI 4XAZT/K103N; Human immunodeficiency virus 1, MT2, Table 5, 4XAZT/K103N, mean ± SD, read-out: EC50): 19.2 ± 8.85 µM; EC50 [2, 4]: 15.5 ± 5.04 µM; EC50 [3, 5]: 7.6 µM; EC50 [3, 6]: 8.85 ± 3.49 µM |
| Cc1cn([C@H]2C[C@H](N=[N+]=[N-])[C@@H](CO)O2)c(=O)[nH]c1=O [AZT, 3′-Azido-3′-deoxythymidine] |  |  |  |  |  |  |  |  |  |  |  |  |  |  |  |  |  |  |  |  | EC50 (HIV-1LAI 4XAZT/W88G; Human immunodeficiency virus 1, MT2, Table 8, W88G/4XAZT, read-out: AZT EC50): 0.06 ± 0.018 µM; Fold resistance (HIV-1LAI 4XAZT/W88G; Table 8, W88G/4XAZT relative to wild type virus): 1.5 |
| CCCCCCCCCCCCCCCCCCOC[C@H](COP(=O)(O)C(=O)O)OC [MB-PFA, 1-O-octadecyl-2-O-methyl-sn-glycero-3-PFA] | (0.4) | (1.2) | 0.12 (9.4) | (0) | (1.2) | (0.9) | (0.8) | 12.8 µM | 9.00 (17.7) | 0.13 µM | 0.18 ± 0.11 µM | 0.48 µM | 0.59 ± 0.36 µM | 7.21 µM | 2.46 µM | 0.6 ± 0.38 µM | 0.4 ± 0.28 µM | 0.26 µM | 0.4 ± 0.26 µM |  |  |
| CCCCCCCCCCCCCCCCCCOC[C@@H](O)COP(=O)(O)C(=O)O [B-PFA, 1-O-octadecyl-sn-glycero-3-PFA] | (0.5) | (1.3) | (>17.2) | (1.6) | (2.2) | (0.6) | (0.9) | > 30 µM | (>17.2) | 1.25 µM | 0.94 ± 1.08 µM | 2.29 µM | 2.29 ± 1.59 µM | > 30 µM | 16.4 µM | 3.87 ± 2.36 µM | 1.1 ± 0.53 µM | 1.47 µM | 1.67 ± 0.95 µM | 4.1 ± 1.2 µM | EC50 (HIV-1LAI 4XAZT/K103N; [11]): 2.72 µM |
| CCCCCCCCCCCCCCCCCCOC[C@H](COP(=O)(O)C(=O)O)OCC [EB-PFA, 1-O-octadecyl-2-O-ethyl-sn-glycero-3-PFA] | (0.5) | (0.9) |  | (0) | (1.4) | (0.8) | (0.5) | 7.02 µM |  | 0.41 µM | 0.3 ± 0.35 µM | 0.58 µM | 0.56 ± 0.08 µM | 5.21 µM | 3.31 µM | 0.88 ± 0.14 µM | 0.5 ± 0.06 µM | 0.32 µM | 0.3 ± 0.04 µM | 0.2 ± 0.3 µM | EC50 (HIV-1LAI 4XAZT/K103N; [11]): 0.8 µM |
